{"source": "patent US20120171286A1", "about": "“METHODS AND COMPOSITIONS FOR THE TREATMENT AND DIAGNOSIS OF STATIN-INDUCED MYOPATHY” (Beth Isreal Deaconess Medical Center, priority 2009, published 2012)", "key": {"[1]": {"test_system": "myotubes derived from atrogin-1 wildtype mice (+/+)", "assay": "Myotube diameter and morphology, myotubes from wildtype mice", "type": "cell-based, mouse", "conditions": "for fiber diameter in myotube culture: 2.5 μM compound alone", "protocol": "(§1) Myotube fiber size: Size was quantified by measuring a total of 200 tube diameters as described in Sandri et al. (Cell 117:399-412, 2004). Briefly, muscle fiber size from four random fields at 100-fold magnification was measured using IMAGE software (Scion). All data were expressed as the mean +/− S.E.M."}, "[2]": {"test_system": "zebrafish embryos", "assay": "Zebrafish embryo myofiber damage, myosin heavy chain staining", "conditions": "for fiber diameter in zebrafish embryos: 2.5 μM compound alone", "description": "Zebrafish lines and maintenance: Adult zebrafish (Danio rerio) were maintained as described under standard laboratory conditions at 28.5° C. in a 14 hour light/10 hour dark cycle (Westerfield, in Institute of Neuroscience University of Oregon, Eugene, Oreg.). Developmental stages were determined by embryo morphology and hours post fertilization (hpf) (Kimmel et al., Dev. Dyn. 203:253-310, 1995). To examine the effects of lovastatin, the embryos at 20-24 hpf were immersed in the embryonic water (500 μM NaCl, 170 μM KCl, 330 μM CaCl2, and 330 μM MgSO4) at a concentration of 0.005-10 μM lovastatin (mevinolin) (Sigma) including 0.003% 1-phenyl-2-thiourea (Sigma) to inhibit pigmentation in a 24-well plate. After 32 hpf, the embryos were fixed by 4% paraformaldehyde in PBS.\nWhole zebrafish antibody staining: Zebrafish embryos were fixed by 4% paraformaldehyde in PBS overnight. After fixation, the embryos were washed by PBS and stored for at least 1 hour at −20° C. in methanol, and permeabilized for 30 minutes at −20° C. in acetone. Embryos were incubated with blocking buffer (1% BSA, 0.1% Tween-20 in PBS), and incubated with diluted primary antibody, anti-slow twitch myosin F59 (1:100; Developmental Studies Hybridoma Bank (DSHB), Department of Biological Sciences, University of Iowa) (Crow et al., Dev. Biol. 118:333-342, 1986; Devoto et al., Development 122:3371-3380, 1996) in blocking solution for overnight at 4° C. Staining was detected by using Alexa Fluor(R) 594 goat anti-mouse IgG (H+L) (1:200; Invitrogen) in blocking solution for 4 hours at room temperature (Birely et al., Dev. Biol. 280:162-176, 2005)."}, "[3]": {"test_system": "myotubes derived from atrogin-1 knockout mice (−/−)", "assay": "Myotube diameter and morphology, myotubes from atrogin-1 knockout mice", "type": "cell-based, mouse", "protocol": "as §1"}, "[4]": {"test_system": "atrogin-1 mRNA", "assay": "Atrogin-1 mRNA level in myotubes by real-time PCR", "type": "cell-based, mouse", "conditions": "for atrogin-1 mRNA expression: 30 μM compound; for atrogin-1 expression in myotube culture: 2.5 μM compound alone, mRNA and protein (FIGS. 7C-7D)"}, "[5]": {"test_system": "atrogin-1 protein", "assay": "Atrogin-1 protein in myotubes by Western blotting", "type": "cell-based, mouse", "conditions": "for atrogin-1 protein expression: 30 μM compound", "protocol": "Western blotting: Cultured cells after treatment were collected at specific times and solubilized in RIPA lysis buffer (50 mM Tris-HCl, pH 7.4, 150 mM NaCl 1% NP-40, 0.5% sodium deoxycholate, 0.1% SDS (Boston Bioproducts)), protease (Roche) and phosphatase (Sigma) inhibitor cocktail). Proteins were separated by SDS-PAGE, transferred to PVDF membranes and visualized by Western blotting using alkaline phosphatase-based CDP-star chemiluminescent detection according to the manufacturer's protocol (Applied Biosystems). Polyclonal anti-atrogin-1 antibody was used as described in Bdolah et al. (Am. J. Physiol. Reg. Integr. Comp. Physiol. 292:R971-R976, 2007). Anti-actin and dynein antibodies were from Santa Cruz Biotechnology."}, "[6]": {"test_system": "zebrafish atrogin-1", "assay": "Zebrafish atrogin-1 protein by Western blotting", "type": "in vivo, zebrafish (Danio rerio)", "conditions": "12 hours; for atrogin-1 expression in zebrafish embryos: 2.5 μM compound alone", "protocol": "Western blotting: Zebrafish embryos were homogenized in SDS sample buffer (30 embryos/30 μL of sample buffer) with microfuge pestle until the lysate became uniform in consistency and there was no longer stringy. The lysate was boiled for 5 minutes and centrifuged supernatant was processed for Western blotting (Hanai et al., J. Cell Biol. 158:529-539, 2002). […] (GAPDH) antibody was from Santa Cruz Biotechnology."}, "[7]": {"conditions": "lovastatin 24 hours, wildtype cultures"}, "[8]": {"conditions": "mevalonate 100 μM + lovastatin 1 μM, 24 hours"}, "[9]": {"conditions": "perillyl alcohol 1.0 mM for 24 hours, wildtype myotubes"}, "[10]": {"conditions": "2.5 μM compound with lovastatin, 24 hours, myotube culture"}}, "data": [{"smiles": "CC[C@H](C)C(=O)O[C@H]1C[C@@H](C)C=C2C=C[C@H](C)[C@H](CC[C@@H]3C[C@@H](O)CC(=O)O3)[C@H]21", "note": "[lovastatin]", "values": [{"measurement": "myotube diameter", "setting": "[1]; 0.5 to 1.0 μM lovastatin for 24 hours, wildtype myotubes", "value": "dose-dependent reduction in myotube diameter"}, {"measurement": "muscle phenotypes (longitudinal muscle fiber staining, myosin heavy chain antibody)", "setting": "[2]; lovastatin alone, zebrafish in vivo model", "value": "clear dose-dependent muscle phenotypes"}, {"measurement": "lovastatin concentration giving class 2 changes (fiber thinning, attenuation of MHC staining)", "setting": "[2]; zebrafish embryos, higher concentrations", "value": "0.05 to 0.5", "unit": "µM"}, {"measurement": "lovastatin concentration giving class 1 changes (bowing, gap formation, fiber disruption)", "setting": "[2]; zebrafish embryos, low concentration", "value": "0.025 to 0.05", "unit": "µM"}, {"measurement": "lovastatin concentration giving class 3 changes (irregular somite boundries)", "setting": "[2]; zebrafish embryos, maximal concentration", "value": "1.0 to 5.0", "unit": "µM"}, {"measurement": "myotube diameter", "setting": "[3]; 0.5 to 1.0 μM lovastatin for 24 hours, atrogin-1 knockout cultures", "value": "resistant to lovastatin-induced reduction in myotube diameter"}, {"measurement": "atrogin-1 mRNA levels", "setting": "[4]; [7]", "value": "dose-dependent increase"}, {"measurement": "atrogin-1 protein levels", "setting": "[5]; [7]", "value": "dose-dependent increase"}]}, {"smiles": "CC(=O)N[C@@H](CSC/C=C(\\C)CC/C=C(\\C)CCC=C(C)C)C(=O)O", "note": "[AFC, N-acetyl-S-farnesyl-L-cysteine]", "values": [{"measurement": "myotube diameter / myotube integrity", "setting": "[1]; 30 μM compound, 24 hours, wildtype myotubes", "value": "no effect"}, {"measurement": "atrogin-1 mRNA expression", "setting": "[4]; 24 hours", "value": "no effect"}, {"measurement": "atrogin-1 protein expression", "setting": "[5]; 24 hours", "value": "no effect"}]}, {"smiles": "CC(O)(CCO)CC(=O)O", "note": "(stereo not shown) [mevalonate]", "values": [{"measurement": "reduction of myotube diameter caused by lovastatin", "setting": "[1]; [8]", "value": "completely prevented"}, {"measurement": "effect on the muscle cultures when administered alone", "setting": "[1]; mevalonate 100 μM alone, 24 hours", "value": "no effect"}, {"measurement": "development of zebrafish myofiber damage", "setting": "[2]; 100 μM mevalonate + 0.05 to 1.0 μM lovastatin, 12 hours", "value": "completely prevented"}, {"measurement": "zebrafish atrogin-1 induction", "setting": "[6]; 100 μM mevalonate + 0.05 to 1.0 μM lovastatin", "value": "completely prevented"}, {"measurement": "atrogin-1 mRNA induction caused by lovastatin", "setting": "[4]; [8]", "value": "completely prevented"}, {"measurement": "atrogin-1 protein induction caused by lovastatin", "setting": "[5]; [8]", "value": "completely prevented"}]}, {"smiles": "C=C(C)[C@@H]1CC=C(CO)CC1", "note": "[Perillyl alcohol, perillyl alcohol]", "values": [{"measurement": "damage of myotubes", "setting": "[1]; [9]", "value": "marked damage"}, {"measurement": "muscle fibers in zebrafish embryos", "setting": "[2]; 0.1 to 1.0 mM perillyl alcohol for 12 hours", "value": "dramatic thinning of muscle fibers and morphologic damage"}, {"measurement": "atrogin-1 mRNA levels", "setting": "[4]; [9]", "value": "induction"}, {"measurement": "atrogin-1 protein levels", "setting": "[5]; [9]", "value": "induction"}]}, {"smiles": "CC(C)=CCC/C(C)=C/CC/C(C)=C/CC/C(C)=C/CO", "note": "[geranylgeranol]", "values": [{"measurement": "fiber diameter in myotube culture", "setting": "[1]; 24 hours", "value": "neither 2.5 μM farnesol nor 2.5 μM geranylgeranol alone had any effect"}, {"measurement": "fiber damage in myotube culture", "setting": "[1]; 2.5 μM compound with lovastatin, 24 hours", "value": "reduced the degree"}, {"measurement": "fiber diameter in zebrafish embryos", "setting": "[2]; 12 hours", "value": "neither 2.5 μM farnesol nor 2.5 μM geranylgeranol alone had any effect"}, {"measurement": "fiber damage in zebrafish embryos", "setting": "[2]; 2.5 μM compound with lovastatin, 12 hours", "value": "reduced the degree"}, {"measurement": "atrogin-1 expression in zebrafish embryos", "setting": "[6]", "value": "neither 2.5 μM farnesol nor 2.5 μM geranylgeranol alone had any effect"}, {"measurement": "degree of atrogin-1 induction in zebrafish embryos", "setting": "[6]; 2.5 μM compound with lovastatin", "value": "reduced the degree"}, {"measurement": "atrogin-1 expression in myotube culture", "setting": "[4]; 24 hours", "value": "neither 2.5 μM farnesol nor 2.5 μM geranylgeranol alone had any effect"}, {"measurement": "degree of atrogin-1 mRNA induction", "setting": "[4]; [10]", "value": "reduced the degree"}, {"measurement": "degree of atrogin-1 protein induction", "setting": "[5]; [10]", "value": "reduced the degree"}]}, {"smiles": "CC(=O)N[C@@H](CSC/C=C(\\C)CC/C=C(\\C)CC/C=C(\\C)CCC=C(C)C)C(=O)O", "note": "[AGGC, N-acetyl-S-geranylgeranyl-L-cysteine]", "values": [{"measurement": "effect on myotubes", "setting": "[3]; 30 μM AGGC, 24 hours, atrogin-1 knockout myotubes", "value": "resistant to this reagent"}, {"measurement": "atrogin-1 mRNA expression", "setting": "[4]; 24 hours", "value": "induction"}, {"measurement": "atrogin-1 protein expression", "setting": "[5]; 24 hours", "value": "induction"}]}, {"smiles": "CC(C)=CCCC(C)=CCCC(C)=CCO", "note": "[farnesol]", "values": [{"measurement": "fiber diameter in myotube culture", "setting": "[1]; 24 hours", "value": "neither 2.5 μM farnesol nor 2.5 μM geranylgeranol alone had any effect"}, {"measurement": "fiber diameter in zebrafish embryos", "setting": "[2]; 12 hours", "value": "neither 2.5 μM farnesol nor 2.5 μM geranylgeranol alone had any effect"}, {"measurement": "atrogin-1 expression in zebrafish embryos", "setting": "[6]", "value": "neither 2.5 μM farnesol nor 2.5 μM geranylgeranol alone had any effect"}, {"measurement": "atrogin-1 expression in myotube culture", "setting": "[4]; 24 hours", "value": "neither 2.5 μM farnesol nor 2.5 μM geranylgeranol alone had any effect"}]}]}
